Measured values as given in US9802960B2 (MILLENNIUM PHARMACEUTICALS, INC., priority 2014, dated 2017).

What follows are compounds tested against Human VPS34 (Homo sapiens (Human), UniProt Q8NEB9) (assay: Human VPS34 enzyme assay (Adapta TR-FRET)). Settings: compound concentration 1.11 μM.
Format: biochemical

Chain of Human VPS34 (Q8NEB9 whole entry): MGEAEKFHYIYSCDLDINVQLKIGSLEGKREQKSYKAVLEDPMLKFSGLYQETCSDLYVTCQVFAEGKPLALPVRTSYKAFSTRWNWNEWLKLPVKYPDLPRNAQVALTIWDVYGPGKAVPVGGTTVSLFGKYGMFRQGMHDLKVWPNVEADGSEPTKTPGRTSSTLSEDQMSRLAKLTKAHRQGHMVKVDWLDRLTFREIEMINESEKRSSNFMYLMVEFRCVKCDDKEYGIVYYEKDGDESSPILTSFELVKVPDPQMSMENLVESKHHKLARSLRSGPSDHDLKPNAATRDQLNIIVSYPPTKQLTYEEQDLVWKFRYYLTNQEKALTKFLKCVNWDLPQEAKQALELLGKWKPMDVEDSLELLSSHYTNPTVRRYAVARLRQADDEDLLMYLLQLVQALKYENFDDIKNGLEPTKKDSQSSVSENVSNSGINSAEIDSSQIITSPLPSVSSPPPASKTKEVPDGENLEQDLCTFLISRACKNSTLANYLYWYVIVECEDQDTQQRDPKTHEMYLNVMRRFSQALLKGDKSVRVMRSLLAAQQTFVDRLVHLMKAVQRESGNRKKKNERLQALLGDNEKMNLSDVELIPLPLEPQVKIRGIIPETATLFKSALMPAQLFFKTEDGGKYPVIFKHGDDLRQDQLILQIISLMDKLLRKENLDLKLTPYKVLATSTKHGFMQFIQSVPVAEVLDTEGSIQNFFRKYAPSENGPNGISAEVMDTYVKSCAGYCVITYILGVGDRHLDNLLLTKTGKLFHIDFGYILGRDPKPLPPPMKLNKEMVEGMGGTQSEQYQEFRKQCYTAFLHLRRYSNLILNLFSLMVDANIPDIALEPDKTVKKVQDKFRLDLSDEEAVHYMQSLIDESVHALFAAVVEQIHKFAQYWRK

Compound	Percent Inhibition [%]
Cc1nccc(Nc2cc(-c3cnc(N)c(C(=O)N(C)C45CC(C4)C5)c3)ccn2)n1 [Compound I-277, 6-amino-N-(bicyclo[1.1.1]pent-1-yl)-N-methyl-2′-[(2-methylpyrimidin-4-yl)amino]-3,4′-bipyridine-5-carboxamide]	100
CC(=O)Nc1cc(-c2cnc(N)c(S(=O)(=O)NCC(C)C)c2)ccn1 [Compound I-73, N-[6-amino-5-(isobutylsulfamoyl)-3,4′-bipyridin-2′-yl]acetamide]	>99
CC(=O)Nc1cc(-c2cnc(Cl)c(NS(=O)(=O)N(C)C)c2)ccn1 [Compound I-372, N-{6-chloro-5-[(dimethylsulfamoyl)amino]-3,4′-bipyridin-2′-yl}acetamide]	>99

Same assay, conditions: compound concentration 1.11 μM; read-out: Percent Inhibition

Compound	inhibition at 1.11 µM [%]
CC(=O)Nc1cc(-c2cnc(C)c(NS(=O)(=O)c3ccc(F)cc3F)c2)cc(C)n1 [Compound I-414, N-(5-{[(2,4-difluorophenyl)sulfonyl]amino}-6,6′-dimethyl-3,4′-bipyridin-2′-yl)acetamide]	89
CC(=O)Nc1cc(-c2cnc(N)c(S(=O)(=O)Nc3ccccc3)c2)ccn1 [Compound I-43, N-[6-amino-5-(phenylsulfamoyl)-3,4′-bipyridin-2′-yl]acetamide]	> 99
COc1ncc(-c2ccnc(NC(C)=O)c2)cc1S(=O)(=O)Nc1ccccc1 [Compound I-39, N-[6-methoxy-5-(phenylsulfamoyl)-3,4′-bipyridin-2′-yl]acetamide]	> 99
CNS(=O)(=O)Nc1cc(-c2ccnc(NC(C)=O)c2)cnc1C [Compound I-455, N-{6-methyl-5-[(methylsulfamoyl)amino]-3,4′-bipyridin-2′-yl}acetamide]	> 99
CC(=O)Nc1cc(-c2cnc(N(C)C)c(C(=O)N(C)c3ccc(F)cc3F)c2)ccn1 [Compound I-174, 2′-Acetamido-N-(2,4-difluorophenyl)-6-(dimethylamino)-N-methyl-[3,4′-bipyridine]-5-carboxamide]	> 99
CNc1ncc(-c2ccnc(NC(C)=O)c2)cc1N(C)S(C)(=O)=O [Compound I-147, N-{6-(methylamino)-5-[methyl(methylsulfonyl)amino]-3,4′-bipyridin-2′-yl}acetamide]	> 99
CC(=O)Nc1cc(-c2cncc(S(=O)(=O)NC(C)(C)C)c2)ccn1 [Compound I-443, N-[5-(tert-butylsulfamoyl)-3,4′-bipyridin-2′-yl]acetamide]	> 99
Nc1cncc(-c2ccnc(N)c2)c1 [Compound I-231, 3,4′-bipyridine-2′,5-diamine]	26
CC(=O)Nc1cc(-c2cncc(NC(=O)c3ccccc3)c2)ccn1 [Compound I-13, N-(2′-acetamido-3,4′-bipyridin-5-yl)benzamide]	81
Cc1nccc(Nc2cc(-c3cnc(Cl)c(NS(=O)(=O)c4ccc(F)cc4F)c3C)c(F)cn2)n1 [Compound I-294, N-{6-chloro-5′-fluoro-4-methyl-2′-[(2-methylpyrimidin-4-yl)amino]-3,4′-bipyridin-5-yl}-2,4-difluorobenzenesulfonamide]	94
Cc1nccc(Nc2cc(-c3cnc(Cl)c(N(C)C)c3C)ccn2)n1 [Compound I-314, 6-chloro-N5,N5,4-trimethyl-N2′-(2-methylpyrimidin-4-yl)-3,4′-bipyridine-2′,5-diamine]	91
CC(=O)Nc1cc(-c2cnc(N(C)C)c(S(=O)(=O)Nc3ccc(F)cc3F)c2)ccn1 [Compound I-491, N-{5-[(2,4-difluorophenyl)sulfamoyl]-6-(dimethylamino)-3,4′-bipyridin-2′-yl}acetamide]	98
CC(=O)Nc1cc(-c2cnc(Cl)c(NS(=O)(=O)c3c(Cl)cccc3Cl)c2C)ccn1 [Compound I-354, N-(6-chloro-5-{[(2,6-dichlorophenyl)sulfonyl]amino}-4-methyl-3,4′-bipyridin-2′-yl)acetamide]	98
CC(=O)Nc1cc(-c2cnc(N)c(C(=O)Nc3cccc(F)c3F)c2)ccn1 [Compound I-179, 2′-acetamido-6-amino-N-(2,3-difluorophenyl)-3,4′-bipyridine-5-carboxamide]	> 99
Cc1c(-c2ccnc(Nc3ccnc(C4CC4)n3)c2)cnc(Cl)c1NS(=O)(=O)c1ccc(F)cc1F [Compound I-296, N-{6-chloro-2′-[(2-cyclopropylpyrimidin-4-yl)amino]-4-methyl-3,4′-bipyridin-5-yl}-2,4-difluorobenzene sulfonamide]	90
CC(=O)Nc1cc(-c2cnc3cn[nH]c3c2)ccn1 [Compound I-116, N-[4-(1H-pyrazolo[4,3-b]pyridin-6-yl)pyridin-2-yl]acetamide]	68
Cc1nccc(Nc2cc(-c3cnc(C)c(C(=O)N4CC5(COC5)C4)c3)ccn2)n1 [Compound I-415, {6-methyl-2′-[(2-methylpyrimidin-4-yl)amino]-3,4′-bipyridin-5-yl}(2-oxa-6-azaspiro[3.3]hept-6-yl)methanone]	82
CC(=O)Nc1cc(-c2cnc(C)c(NS(=O)(=O)N3CCC(C)(C)CC3)c2)ccn1 [Compound I-483, N-(5-{[(4,4-dimethylpiperidin-1-yl)sulfonyl]amino}-6-methyl-3,4′-bipyridin-2′-yl)acetamide]	> 99

Compound	inhibition at 1.11 µM [%]
CC(=O)Nc1cc(-c2cnc(N)c(C(=O)NC3CC3)c2)ccn1 [Compound I-169, 2′-acetamido-6-amino-N-cyclopropyl-3,4′-bipyridine-5-carboxamide]	> 99
CC(=O)Nc1cc(-c2cnc(N)c(S(=O)(=O)Nc3cccc(Cl)c3)c2)ccn1 [Compound I-97, N-{6-amino-5-[(3-chlorophenyl)sulfamoyl]-3,4′-bipyridin-2′-yl}acetamide]	> 99
CC(=O)Nc1cc(-c2cnc(C)c(NS(=O)(=O)c3ccccc3F)c2)ccn1 [Compound I-144, N-(5-{[(2-fluorophenyl)sulfonyl]amino}-6-methyl-3,4′-bipyridin-2′-yl)acetamide]	> 99
COC(=O)Nc1cc(-c2cnc(C)c(NS(=O)(=O)N(C)C)c2)ccn1 [Compound I-241, methyl {5-[(dimethylsulfamoyl)amino]-6-methyl-3,4′-bipyridin-2′-yl}carbamate]	96
CC(=O)Nc1cc(-c2cnc(C)c(NS(=O)(=O)c3cc(C(F)(F)F)ccc3F)c2)ccn1 [Compound I-143, N-[5-({[2-fluoro-5-(trifluoromethyl)phenyl]sulfonyl}amino)-6-methyl-3,4′-bipyridin-2′-yl]acetamide]	> 99
CC(=O)Nc1cc(-c2cc(S(C)(=O)=O)c[n+]([O-])c2)ccn1 [Compound I-191, N-{4-[5-(methylsulfonyl)-1-oxidopyridin-3-yl]pyridin-2-yl}acetamide]	77
Cc1nccc(Nc2cc(-c3cnc(C)c(C(=O)N(C)c4ccc(F)cc4F)c3)ccn2)n1 [Compound I-346, N-(2,4-difluorophenyl)-N,6-dimethyl-2′-[(2-methylpyrimidin-4-yl)amino]-3,4′-bipyridine-5-carboxamide]	95
CC(=O)Nc1cc(-c2cc(NS(=O)(=O)c3ccc(F)cc3F)c(C)[n+]([O-])c2)ccn1 [Compound I-258, N-[4-(5-{[(2,4-difluorophenyl)sulfonyl]amino}-6-methyl-1-oxidopyridin-3-yl)pyridin-2-yl]acetamide]	88
CC(=O)Nc1cc(-c2cnc(N)c(S(=O)(=O)N3CCCC3)c2)ccn1 [Compound I-87, N-[6-amino-5-(pyrrolidin-1-ylsulfonyl)-3,4′-bipyridin-2′-yl]acetamide]	> 99
CNc1ncc(-c2ccnc(NC(C)=O)c2)c(C)c1S(=O)(=O)NC(C)(C)C [Compound I-436, N-[5-(tert-butylsulfamoyl)-4-methyl-6-(methylamino)-3,4′-bipyridin-2′-yl]acetamide]	89
CC(=O)Nc1cc(-c2cnc(C)c(C(=O)Nc3ccc(F)cc3F)c2)ccn1 [Compound I-431, 2′-acetamido-N-(2,4-difluorophenyl)-6-methyl-3,4′-bipyridine-5-carboxamide]	74
CC(=O)Nc1cc(-c2cnc(C)c(NC(=O)c3ccc(F)cc3F)c2)ccn1 [Compound I-115, N-(2′-acetamido-6-methyl-3,4′-bipyridin-5-yl)-2,4-difluorobenzamide]	68
CC(=O)Nc1cc(-c2cncc(S(=O)(=O)N3CC(F)(F)C3)c2)ccn1 [Compound I-391, N-{5-[(3,3-difluoroazetidin-1-yl)sulfonyl]-3,4′-bipyridin-2′-yl}acetamide]	> 99
CCNC(=O)Nc1cc(-c2ccnc(Nc3ccnc(C)n3)c2)cnc1C [Compound I-367, 1-ethyl-3-{6-methyl-2′-[(2-methylpyrimidin-4-yl)amino]-3,4′-bipyridin-5-yl}urea]	76
CC(=O)Nc1cc(-c2cnc(N)c(S(=O)(=O)NC34CC(C3)C4)c2)ccn1 [Compound I-11, N-[6-amino-5-(bicyclo[1.1.1]pent-1-ylsulfamoyl)-3,4′-bipyridin-2′-yl]acetamide]	> 99
Cc1ncc(-c2ccnc(Nc3ccncn3)c2)cc1NS(=O)(=O)N(C)C [Compound I-217, N,N-dimethyl-Y-[6-methyl-2′-(pyrimidin-4-ylamino)-3,4′-bipyridin-5-yl]sulfuric diamide]	> 99
Cc1c(-c2ccnc(Nc3ccnc(C4CC4)n3)c2)cnc(Cl)c1C(=O)N1CC(C)(C)C1 [Compound I-466, {6-chloro-2′-[(2-cyclopropylpyrimidin-4-yl)amino]-4-methyl-3,4′-bipyridin-5-yl}(3,3-dimethylazetidin-1-yl)methanone]	92
CC(=O)Nc1cc(-c2cnc(N)c(C(=O)N3CCCC3)c2)ccn1 [Compound I-15, N-[6-amino-5-(pyrrolidin-1-ylcarbonyl)-3,4′-bipyridin-2′-yl]acetamide]	> 99

Same assay, conditions: read-out: Percent Inhibition

Compound	inhibition at 1.11 µM [%]
CC(=O)Nc1cc(-c2cnc(C)c(NS(=O)(=O)N3CCCCCC3)c2)ccn1 [Compound I-341, N-{5-[(azepan-1-ylsulfonyl)amino]-6-methyl-3,4′-bipyridin-2′-yl}acetamide]	> 99
